Holding throughout (format): cell-based
The test system of experiment [1] is mantle cell lymphoma cell (Mino or JeKo-1). Briefly: Antiproliferative effect, MTS cell viability assay. Here is the method:
Antiproliferative effect of the exemplary compounds was assessed in B-cell malignancy models.
To assess the effect of the exemplary compounds on cell viability in B-cell malignancy models by degradation of CDK4/6 proteins, Mino cells were treated with varying concentrations of exemplary compounds (0, 0.0001, 0.001, 0.01, 0.1, 1 μM) or positive control (palbociclib and abemaciclib). Under these conditions, cell viability was determined by an MTS assay. Cytotoxicity was assayed by the determination of reduced tetrazolium (formazan) created by metabolically active cells as detected at 490 nanometers (nm) absorbance using a microplate reader (BMG Labtech, Cary, NC, USA).
The exemplary compounds attenuated the viability of Mino cells in a concentration-dependent manner at 72 h post treatment. Results are shown in Table 1 and FIGS. 2-15 for each exemplary compound.
On the technique in general: Tetrazolium dyes change colour on reduction, which living cells bring about.

For experiment [2], the target named is T1, CDK4 (Homo sapiens, UniProt P11802).
T1 construct: endogenous in cells
T1 sequence (P11802 whole entry): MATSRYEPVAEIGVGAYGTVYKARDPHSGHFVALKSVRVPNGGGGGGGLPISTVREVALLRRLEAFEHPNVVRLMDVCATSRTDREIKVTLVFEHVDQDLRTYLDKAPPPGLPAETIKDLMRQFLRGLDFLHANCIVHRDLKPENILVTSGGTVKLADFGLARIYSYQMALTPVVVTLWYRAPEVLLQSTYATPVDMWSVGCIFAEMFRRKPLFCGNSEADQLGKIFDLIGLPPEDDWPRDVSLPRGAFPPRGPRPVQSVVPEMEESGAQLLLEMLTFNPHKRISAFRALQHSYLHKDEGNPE
Briefly: CDK4 degradation (DC50, Dmax).

Experiment [3] has as its target T2, CDK6 (Homo sapiens, UniProt Q00534).
T2 construct: endogenous in cells
Briefly: CDK6 degradation (DC50, Dmax).

The mark [4] stands for this setting: 72 h, mantle cell lymphoma cell (Mino or JeKo-1), MTS assay, read-out: IC50 (anti-proliferation).

Where two headings read alike, the source gives them in different places.

By DC50 is commonly meant the concentration giving 50% degradation. Higher therefore signals a less potent degrader. In general, Dmax refers to the greatest extent of degradation seen.

T2 sequence (Q00534 whole entry): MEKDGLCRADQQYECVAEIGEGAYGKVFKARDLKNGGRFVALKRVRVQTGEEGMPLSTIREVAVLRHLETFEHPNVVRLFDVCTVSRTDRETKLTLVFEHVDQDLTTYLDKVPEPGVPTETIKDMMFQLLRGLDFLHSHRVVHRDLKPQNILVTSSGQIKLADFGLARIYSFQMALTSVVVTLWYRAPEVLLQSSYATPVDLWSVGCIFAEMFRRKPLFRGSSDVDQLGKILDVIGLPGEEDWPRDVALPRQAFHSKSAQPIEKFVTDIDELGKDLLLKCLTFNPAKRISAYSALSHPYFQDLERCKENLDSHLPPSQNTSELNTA

Regarding `CC(=O)c1c(C)c2cnc(Nc3ccc(N4CCN(C(=O)N5CCC(CCN6CCC(c7ccc8c(c7)CN(C7CCC(=O)NC7=O)C8=O)CC6)CC5)CC4)cn3)nc2n(C2CCCC2)c1=O` (stereo not shown) [Compound 30, 3-(5-(1-(2-(1-(4-(6-((6-acetyl-8-cyclopentyl-5-methyl-7-oxo-7,8-dihydropyrido[2,3-d]pyrimidin-2-yl)amino)pyridin-3-yl)piperazine-1-carbonyl)piperidin-4-yl)ethyl)piperidin-4-yl)-1-oxoisoindolin-2-yl)piperidine-2,6-dione], the IC50 in experiment [1] (setting [4]) was > 200 nM. For the same compound, in experiment [2], the DC50 is > 200 nM and the Dmax was > 50%. Also, in experiment [3], the DC50 was > 200 nM and the Dmax is > 50%.
As for `CC(=O)c1c(C)c2cnc(Nc3ccc(N4CCN(CC5CCN(C(=O)Nc6ccc7c(c6)CN(C6CCC(=O)NC6=O)C7=O)CC5)CC4)cn3)nc2n(C2CCCC2)c1=O` (stereo not shown) [Compound 42, 4-((4-(6-((6-acetyl-8-cyclopentyl-5-methyl-7-oxo-7,8-dihydropyrido[2,3-d]pyrimidin-2-yl)amino)pyridin-3-yl)piperazin-1-yl)methyl)-N-(2-(2,6-dioxopiperidin-3-yl)-1-oxoisoindolin-5-yl)piperidine-1-carboxamide], the IC50 in experiment [1] (setting [4]) is 50 to 200 nM. Also, the DC50 in experiment [2] and in experiment [3] was 50 to 200 nM throughout. Further, the Dmax in experiment [2] and in experiment [3] was > 80% in each case.
As to `CC(=O)c1c(C)c2cnc(Nc3ccc(N4CCN(C(=O)N5CCN(c6ccc7c(c6)C(=O)N(C6CCC(=O)NC6=O)C7=O)CC5)CC4)cn3)nc2n(C2CCCC2)c1=O` (stereo not shown) [Compound 1, 5-(4-(4-(6-((6-acetyl-8-cyclopentyl-5-methyl-7-oxo-7,8-dihydropyrido[2,3-d]pyrimidin-2-yl)amino)pyridin-3-yl)piperazine-1-carbonyl)piperazin-1-yl)-2-(2,6-dioxopiperidin-3-yl) isoindoline-1,3-dione], the IC50 in experiment [1] (mantle cell lymphoma cell (Mino or JeKo-1); MTS assay, 72 h; read-out: IC50 (anti-proliferation)) was < 50 nM. The 50% degradation concentration (DC50) in experiment [2] was 50 to 200 nM; in experiment [3], < 50 nM. For the same compound, the Dmax in experiment [2] and in experiment [3] was > 60% throughout.
`Cc1nc2c(F)cc(-c3nc(Nc4ccc(CN5CCN(C6CN(c7cccc8c7CN(C7CCC(=O)NC7=O)C8=O)C6)CC5)cn4)ncc3F)cc2n1C(C)C` (stereo not shown) [Compound 99, 3-(4-(3-(4-((6-((5-fluoro-4-(4-fluoro-1-isopropyl-2-methyl-1H-benzo[d]imidazol-6-yl)pyrimidin-2-yl)amino)pyridin-3-yl)methyl)piperazin-1-yl)azetidin-1-yl)-1-oxoisoindolin-2-yl)piperidine-2,6-dione]: the IC50 in experiment [1] (setting [4]) was in the range of 50 to 200 nM. Moreover, in experiment [2], the DC50 lay within 50 to 200 nM and the Dmax is > 60%. In addition, in experiment [3], the DC50 fell in the range of 50 to 200 nM and the Dmax is > 60%.
Turning to `Cc1nc2c(F)cc(-c3nc(Nc4ccc(CC5CCN(C(=O)C6CN(c7ccc8c(c7)C(=O)N(C7CCC(=O)NC7=O)C8=O)C6)CC5)cn4)ncc3F)cc2n1C(C)C` (stereo not shown) [Compound 143, 2-(2,6-dioxopiperidin-3-yl)-5-(3-(4-((6-((5-fluoro-4-(4-fluoro-1-isopropyl-2-methyl-1H-benzo[d]imidazol-6-yl)pyrimidin-2-yl)amino)pyridin-3-yl)methyl)piperidine-1-carbonyl)azetidin-1-yl)isoindoline-1,3-dione], in experiment [1] (setting [4]), the IC50 is < 50 nM. Besides, the DC50 in experiment [2] and in experiment [3] was 50 to 200 nM each time. The Dmax is > 80% in experiment [2] and > 60% in experiment [3].
Consider `Cc1nc2c(F)cc(-c3nc(Nc4ccc(CN5CCN(C6CN(c7ccc(C(=O)NC8CCC(=O)NC8=O)cc7)C6)CC5)cn4)ncc3F)cc2n1C(C)C` (stereo not shown) [Compound 96, N-(2,6-dioxopiperidin-3-yl)-4-(3-(4-((6-((5-fluoro-4-(4-fluoro-1-isopropyl-2-methyl-1H-benzo[d]imidazol-6-yl)pyrimidin-2-yl)amino)pyridin-3-yl)methyl)piperazin-1-yl)azetidin-1-yi)benzamide], for which, in experiment [1] (setting [4]), the IC50 was < 50 nM. For the same compound, in experiment [2], the DC50 was < 50 nM and the Dmax is > 80%. In experiment [3], the DC50 was < 50 nM and the Dmax was > 80%.
Turning to `CC(=O)c1c(C)c2cnc(Nc3ccc(N4CCN(C(=O)N5CCC(CN6CCC(c7ccc8c(c7)C(=O)N(C7CCC(=O)NC7=O)C8=O)CC6)CC5)CC4)cn3)nc2n(C2CCCC2)c1=O` (stereo not shown) [Compound 17, 5-(1-((1-(4-(6-((6-acetyl-8-cyclopentyl-5-methyl-7-oxo-7,8-dihydropyrido[2,3-d]pyrimidin-2-yl)amino)pyridin-3-yl)piperazine-1-carbonyl)piperidin-4-yl)methyl)piperidin-4-yl)-2-(2,6-dioxopiperidin-3-yl)isoindoline-1,3-dione], the IC50 in experiment [1] (setting [4]) lay within 50 to 200 nM. Besides, in experiment [2], the DC50 lay in the range of 50 to 200 nM and the Dmax is > 50%. Further, in experiment [3], the DC50 is 50 to 200 nM and the Dmax was > 50%.
Consider `Cc1nc2c(F)cc(-c3nc(Nc4ccc(CN5CCN(C6CCN(c7ccc8c(c7)CN(C7CCC(=O)NC7=O)C8=O)CC6)CC5)cn4)ncc3F)cc2n1C(C)C` (stereo not shown) [Compound 166, 3-(5-(4-(4-((6-((5-fluoro-4-(4-fluoro-1-isopropyl-2-methyl-1H-benzo[d]imidazol-6-yl)pyrimidin-2-yl)amino)pyridin-3-yl)methyl)piperazin-1-yl)piperidin-1-yl)-1-oxoisoindolin-2-yl)piperidine-2,6-dione], for which the IC50 in experiment [1] (setting [4]) was < 50 nM. Further, in experiment [2], the DC50 lay within 50 to 200 nM and the Dmax is > 80%. Also, in experiment [3], the DC50 is 50 to 200 nM and the Dmax is > 60%.
Consider `CC(=O)c1c(C)c2cnc(Nc3ccc(C4CCN(C(=O)C5CN(c6ccc(C(=O)NC7CCC(=O)NC7=O)cc6)C5)CC4)cn3)nc2n(C2CCCC2)c1=O` (stereo not shown) [Compound 131, 4-(3-(4-(6-((6-acetyl-8-cyclopentyl-5-methyl-7-oxo-7,8-dihydropyrido[2,3-d]pyrimidin-2-yl)amino)pyridin-3-yl)piperidine-1-carbonyl)azetidin-1-yl)-N-(2,6-dioxopiperidin-3-yl)benzamide], for which the IC50 in experiment [1] (setting [4]) was in the range of 50 to 200 nM. Besides, in experiment [2], the DC50 lay within 50 to 200 nM and the Dmax was > 60%. Further, in experiment [3], the DC50 was in the range of 50 to 200 nM and the Dmax is > 60%.
Consider `CC(=O)c1c(C)c2cnc(Nc3ccc(N4CCN(CCCNc5cccc6c5C(=O)N(C5CCC(=O)NC5=O)C6=O)CC4)cn3)nc2n(C2CCCC2)c1=O` (stereo not shown) [Compound 62, 4-((3-(4-(6-((6-acetyl-8-cyclopentyl-5-methyl-7-oxo-7,8-dihydropyrido[2,3-d]pyrimidin-2-yl)amino)pyridin-3-yl)piperazin-1-yl)propyl)amino)-2-(2,6-dioxopiperidin-3-yl) isoindoline-1,3-dione], for which the IC50 in experiment [1] (setting [4]) was < 50 nM. For the same compound, in experiment [2], the DC50 was in the range of 50 to 200 nM and the Dmax is > 80%. Moreover, in experiment [3], the half-maximal degradation concentration (DC50) lay in the range of 50 to 200 nM and the Dmax was > 80%.
Regarding `CC(=O)c1c(C)c2cnc(Nc3ccc(N4CCN(CCCNc5cc6c(cc5F)C(=O)N(C5CCC(=O)NC5=O)C6)CC4)cn3)nc2n(C2CCCC2)c1=O` (stereo not shown) [Compound 52, 3-(5-((3-(4-(6-((6-acetyl-8-cyclopentyl-5-methyl-7-oxo-7,8-dihydropyrido[2,3-d]pyrimidin-2-yl)amino)pyridin-3-yl)piperazin-1-yl)propyl)amino)-6-fluoro-1-oxoisoindolin-2-yl) piperidine-2,6-dione], the IC50 in experiment [1] (setting [4]) was < 50 nM. Also, in experiment [2], the DC50 lay in the range of 50 to 200 nM and the Dmax was > 80%. For the same compound, in experiment [3], the DC50 is 50 to 200 nM and the Dmax is > 80%.
Turning to `Cc1nc2c(F)cc(-c3nc(Nc4ccc(CN5CCN(CC6CN(c7ccc(C(=O)NC8CCC(=O)NC8=O)cc7)C6)CC5)cn4)ncc3F)cc2n1C(C)C` (stereo not shown) [Compound 133, N-(2,6-dioxopiperidin-3-yl)-4-(3-((4-((6-((5-fluoro-4-4-fluoro-1-isopropyl-2-methyl-1H-benzo[d]imidazol-6-yl)pyrimidin-2-ylamino)pyridin-3-yl)methyl)piperazin-1-yl)methyl)azetidin-1-yl)benzamide], the IC50 in experiment [1] (setting [4]) is < 50 nM. Also, in experiment [2], the DC50 is < 50 nM and the greatest degradation seen (Dmax) is > 80%. Besides, in experiment [3], the DC50 is < 50 nM and the Dmax is > 80%.
On to `CC(=O)c1c(C)c2cnc(Nc3ccc(N4CCN(CCN5CCN(c6ccc7c(c6)CN(C6CCC(=O)NC6=O)C7=O)CC5)CC4)cn3)nc2n(C2CCCC2)c1=O` (stereo not shown) [Compound 68, 3-(5-(4-(2-(4-(6-((6-acetyl-8-cyclopentyl-5-methyl-7-oxo-7,8-dihydropyrido[2,3-d]pyrimidin-2-yl)amino)pyridin-3-yl)piperazin-1-yl)ethyl)piperazin-1-yl)-1-oxoisoindolin-2-yl)piperidine-2,6-dione], for which, in experiment [1] (setting [4]), the IC50 fell in the range of 50 to 200 nM. In experiment [2], the DC50 lay within 50 to 200 nM and the Dmax is > 60%. In experiment [3], the DC50 was 50 to 200 nM and the Dmax was > 80%.
Take `Cc1nc2c(F)cc(-c3nc(Nc4ccc(CC5CCN(C(=O)C6CN(c7ccc8c(c7)CN(C7CCC(=O)NC7=O)C8=O)C6)CC5)cn4)ncc3F)cc2n1C(C)C` (stereo not shown) [Compound 144, 3-(5-(3-(4-((6-((5-fluoro-4-(4-fluoro-1-isopropyl-2-methyl-1H-benzo[d]imidazol-6-yl)pyrimidin-2-yl)amino)pyridin-3-yl)methyl)piperidine-1-carbonyl)azetidin-1-yl)-1-oxoisoindolin-2-yl) piperidine-2,6-dione]: the IC50 in experiment [1] (setting [4]) was < 50 nM. In experiment [2], the DC50 fell in the range of 50 to 200 nM and the maximal degradation (Dmax) was > 80%. Moreover, in experiment [3], the 50% degradation concentration (DC50) lay within 50 to 200 nM and the maximal degradation (Dmax) is > 80%.

The record behind these values is US20230295118A1 (EnhancedBio Inc., priority 2022, published 2023).
